Measured values: patent US10722501B2 (BAYER AKTIENGESELLSCHAFT, priority 2016, dated 2020)

The compounds below were run against T1, recombinant full-length human prolyl endopeptidase (PREP) (Homo sapiens, UniProt P48147) (assay: Biochemical human prolyl endopeptidase (PREP) assay with fluorescently labelled substrate). Conditions: substrate Z-Gly-Pro-AMC 50 μM, 32° C., 60 min; some as mean values from multiple independent determinations.
T1 construct: To recombinant full-length human prolyl endopeptidase (PREP, R&D-Systems, 4308-SE); purchased R&D-Systems 4308-SE
T1 sequence (P48147 1-710): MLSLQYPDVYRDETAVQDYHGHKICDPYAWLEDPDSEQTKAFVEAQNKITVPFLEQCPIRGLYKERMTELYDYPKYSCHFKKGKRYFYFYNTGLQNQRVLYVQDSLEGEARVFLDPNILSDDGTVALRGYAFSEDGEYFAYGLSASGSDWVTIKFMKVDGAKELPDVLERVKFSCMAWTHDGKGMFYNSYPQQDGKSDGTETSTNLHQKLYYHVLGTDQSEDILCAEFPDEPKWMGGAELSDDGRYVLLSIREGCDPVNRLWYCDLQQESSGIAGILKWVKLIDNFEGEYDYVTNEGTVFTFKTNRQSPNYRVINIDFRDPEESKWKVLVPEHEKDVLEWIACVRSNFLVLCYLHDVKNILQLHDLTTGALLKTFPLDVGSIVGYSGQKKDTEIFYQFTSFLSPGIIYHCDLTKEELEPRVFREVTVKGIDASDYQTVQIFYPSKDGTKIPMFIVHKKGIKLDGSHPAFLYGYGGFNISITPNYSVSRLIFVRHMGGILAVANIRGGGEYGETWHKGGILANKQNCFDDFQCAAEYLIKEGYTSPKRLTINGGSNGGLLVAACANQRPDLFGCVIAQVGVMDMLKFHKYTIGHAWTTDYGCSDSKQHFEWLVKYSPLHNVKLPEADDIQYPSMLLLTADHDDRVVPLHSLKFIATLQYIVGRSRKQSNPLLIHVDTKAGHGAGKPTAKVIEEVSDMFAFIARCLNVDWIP
Method in brief: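 0.4 nM (final, example) recombinant PREP in pH 7.5 Tris buffer with EDTA, GSH, BSA and Brij-35; compounds at 1 nM to 30 μM. Reaction started with 50 μM Z-Gly-Pro-AMC and followed by fluorescence (ex 360/em 465 nm) at 32° C for 60 min. IC50 interpolated from percent activity based on initial slopes.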

IC50 [nM]	Structure (SMILES)
5.55	O=C([C@@H]1CCCc2nn(Cc3ccc(F)c(C(F)(F)F)c3)c(=O)n21)N1CC(O)C1 [Example 449, (5S)-2-[4-Fluoro-3-(trifluoromethyl)benzyl]-5-[(3-hydroxyazetidin-1-yl)carbonyl]-5,6,7,8-tetrahydro[1,2,4]triazolo[4,3-a]pyridin-3(2H)-one]
2.8	O=C([C@@H]1CCCc2nn(Cc3ccnc(C(F)(F)F)c3F)c(=O)n21)N1CCC(F)(F)C1 [Example 482, (5S)-5-[(3,3-Difluoropyrrolidin-1-yl)carbonyl]-2-{[3-fluoro-2-(trifluoromethyl)pyridin-4-yl]methyl}-5,6,7,8-tetrahydro[1,2,4]triazolo[4,3-a]pyridin-3(2H)-one]
5.1	O=C([C@@H]1CCCc2nn(Cc3cncc(C(F)(F)F)c3)c(=O)n21)N1CCCC1 [Example 535, (5S)-5-(Pyrrolidin-1-ylcarbonyl)-2-{[5-(trifluoromethyl)pyridin-3-yl]methyl}-5,6,7,8-tetrahydro[1,2,4]triazolo[4,3-a]pyridin-3(2H)-one]
1.6	CSc1ccc(Cn2nc3n(c2=O)C(C(=O)N2CCCC2)CCC3)cc1 (racemic) [Example 30, (5RS)-2-[4-(Methylsulphanyl)benzyl]-5-(pyrrolidin-1-ylcarbonyl)-5,6,7,8-tetrahydro[1,2,4]triazolo[4,3-a]pyridin-3(2H)-one]
1.75	O=C(C1CCCc2nn(Cc3ccc(C(F)(F)F)cc3)c(=O)n21)N1CCCC1 (racemic) [Example 1, (5RS)-5-(Pyrrolidin-1-ylcarbonyl)-2-[4-(trifluoromethyl)benzyl]-5,6,7,8-tetrahydro[1,2,4]triazolo[4,3-a]pyridin-3(2H)-one]
13	O=C([C@@H]1CCCc2nn(Cc3cccc(C(F)(F)F)n3)c(=O)n21)N1CC(F)C1 [Example 369, (5S)-5-[(3-Fluoroazetidin-1-yl)carbonyl]-2-{[6-(trifluoromethyl)pyridin-2-yl]methyl}-5,6,7,8-tetrahydro[1,2,4]triazolo[4,3-a]pyridin-3(2H)-one]
0.83	Cc1ccc(Cn2nc3n(c2=O)[C@H](C(=O)N2CC[S+]([O-])C2)CCC3)cc1 (mixture of isomers) [Example 141, (5S)-2-(4-Methylbenzyl)-5-{[(1 RS)-1-oxido-1,3-thiazolidin-3-yl]carbonyl}-5,6,7,8-tetrahydro[1,2,4]triazolo[4,3-a]pyridin-3(2H)-one]
2.6	O=C([C@@H]1CCCc2nn(Cc3ccc(Cl)cn3)c(=O)n21)N1C[C@@H](F)[C@@H](F)C1 [Example 378, (5S)-2-[(5-Chloropyridin-2-yl)methyl]-5-{[(3R,4S)-3,4-difluoropyrrolidin-1-yl]carbonyl}-5,6,7,8-tetrahydro[1,2,4]triazolo[4,3-a]pyridin-3(2H)-one]
0.725	O=C([C@@H]1CCCc2nn(Cc3ccc(F)cc3F)c(=O)n21)N1CCC(F)(F)C1 [Example 487, (5S)-2-(2,4-Difluorobenzyl)-5-[(3,3-difluoropyrrolidin-1-yl)carbonyl]-5,6,7,8-tetrahydro[1,2,4]triazolo[4,3-a]pyridin-3(2H)-one]
34.5	CC1Cc2nn(Cc3ccc(C(F)(F)F)nc3)c(=O)n2C(C(=O)N2CC(O)C2)C1 (single isomer, unassigned) [Example 135, (5RS,7RS)-5-[(3-Hydroxyazetidin-1-yl)carbonyl]-7-methyl-2-{[6-(trifluoromethyl)pyridin-3-yl]methyl}-5,6,7,8-tetrahydro[1,2,4]triazolo[4,3-a]pyridin-3(2H)-one]
4.8	Cc1nc(C(F)(F)F)c(Cn2nc3n(c2=O)C(C(=O)N2CCCC2)CCC3)s1 (racemic) [Example 77, (5RS)-2-{[2-Methyl-4-(trifluoromethyl)-1,3-thiazol-5-yl]methyl}-5-(pyrrolidin-1-ylcarbonyl)-5,6,7,8-tetrahydro[1,2,4]triazolo[4,3-a]pyridin-3(2H)-one]
31	O=C([C@@H]1CCCc2nn(Cc3cncc(Cl)c3)c(=O)n21)N1CC(F)C(F)C1 (mixture of isomers) [Example 548, (5S)-2-[(5-Chloropyridin-3-yl)methyl]-5-{[trans-3,4-difluoropyrrolidin-1-yl]carbonyl}-5,6,7,8-tetrahydro[1,2,4]triazolo[4,3-a]pyridin-3(2H)-one]
1.17	CC1Cc2nn(Cc3ccc(C(F)(F)F)nc3)c(=O)n2C(C(=O)N2CC[C@H](F)C2)C1 (mixture of isomers) [Example 136, (5RS,7RS)-5-{[(3S)-3-Fluoropyrrolidin-1-yl]carbonyl}-7-methyl-2-{[6-(trifluoromethyl)pyridin-3-yl]methyl}-5,6,7,8-tetrahydro[1,2,4]triazolo[4,3-a]pyridin-3(2H)-one]
3.7	CC1Cc2nn(Cc3ccc(C(F)(F)F)nc3)c(=O)n2C(C(=O)N2CC(F)C2)C1 (racemic) [Example 341, (5RS,7RS)-5-[(3-Fluoroazetidin-1-yl)carbonyl]-7-methyl-2-{[6-(trifluoromethyl)pyridin-3-yl]methyl}-5,6,7,8-tetrahydro[1,2,4]triazolo[4,3-a]pyridin-3(2H)-one]
6.93	O=C([C@@H]1CCCc2nn(Cc3ccc(C(F)(F)F)nc3)c(=O)n21)N1CCC(F)(F)C1 [Example 426, (5S)-5-[(3,3-Difluoropyrrolidin-1-yl)carbonyl]-2-{[6-(trifluoromethyl)pyridin-3-yl]methyl}-5,6,7,8-tetrahydro[1,2,4]triazolo[4,3-a]pyridin-3(2H)-one]
51.5	O=C([C@@H]1CCCc2nn(Cc3cc(C(F)(F)F)c(Cl)cn3)c(=O)n21)N1CC[C@H](O)C1 [Example 374, (5S)-2-{[5-Chloro-4-(trifluoromethyl)pyridin-2-yl]methyl}-5-{[(3S)-3-hydroxypyrrolidin-1-yl]carbonyl}-5,6,7,8-tetrahydro[1,2,4]triazolo[4,3-a]pyridin-3(2H)-one]
11	CCn1ccnc1Cn1nc2n(c1=O)C(C(=O)N1CCCC1)CCC2 (racemic) [Example 70, (5RS)-2-[(1-Ethyl-1H-imidazol-2-yl)methyl]-5-(pyrrolidin-1-ylcarbonyl)-5,6,7,8-tetrahydro[1,2,4]triazolo[4,3-a]pyridin-3(2H)-one]
2.6	O=C(C1CC(C(F)(F)F)Cc2nn(Cc3cncc(Cl)c3)c(=O)n21)N1CC[C@H](F)C1 (mixture of isomers) [Example 316, (5RS,7RS)-2-[(5-Chloropyridin-3-yl)methyl]-5-{[(3S)-3-fluoropyrrolidin-1-yl]carbonyl}-7-(trifluoromethyl)-5,6,7,8-tetrahydro[1,2,4]triazolo[4,3-a]pyridin-3(2H)-one]
1.95	Cc1ccc(Cn2nc3n(c2=O)C(C(=O)N2CC(F)(F)C2)CCC3)cc1 (racemic) [Example 114, (5RS)-5-[(3,3-Difluoroazetidin-1-yl)carbonyl]-2-(4-methylbenzyl)-5,6,7,8-tetrahydro[1,2,4]triazolo[4,3-a]pyridin-3(2H)-one]
3.15	Cc1ccc(Cn2nc3n(c2=O)C(C(=O)N2C[C@@H]4[C@H](C2)C4(F)F)CCC3)cc1 (mixture of isomers) [Example 117, (5RS)-5-{[(cis)-6,6-Difluoro-3-azabicyclo[3.1.0]hex-3-yl]carbonyl}-2-(4-methylbenzyl)-5,6,7,8-tetrahydro[1,2,4]triazolo[4,3-a]pyridin-3(2H)-one]
0.52	O=C([C@@H]1CCCc2nn(Cc3cc(F)c(F)cc3F)c(=O)n21)N1C[C@@H](F)[C@@H](F)C1 [Example 492, (5S)-5-{[(3R,4S)-3,4-Difluoropyrrolidin-1-yl]carbonyl}-2-(2,4,5-trifluorobenzyl)-5,6,7,8-tetrahydro[1,2,4]triazolo[4,3-a]pyridin-3(2H)-one]
18	O=C([C@@H]1CCCc2nn(Cc3ccc(Cl)nc3)c(=O)n21)N1CC(F)C(F)C1 (mixture of isomers) [Example 550, (5S)-2-[(6-Chloropyridin-3-yl)methyl]-5-{[trans-3,4-difluoropyrrolidin-1-yl]carbonyl}-5,6,7,8-tetrahydro[1,2,4]triazolo[4,3-a]pyridin-3(2H)-one]
110	O=C([C@@H]1CCCc2nn(Cc3nc(C(F)(F)F)no3)c(=O)n21)N1CC(F)(F)C1 [Example 499, (5S)-5-[(3,3-Difluoroazetidin-1-yl)carbonyl]-2-{[3-(trifluoromethyl)-1,2,4-oxadiazol-5-yl]methyl}-5,6,7,8-tetrahydro[1,2,4]triazolo[4,3-a]pyridin-3(2H)-one]
0.78	O=C([C@@H]1CCCc2nn(Cc3ccc(F)cc3Cl)c(=O)n21)N1CC(F)C1 [Example 476, (5S)-2-(2-Chloro-4-fluorobenzyl)-5-[(3-fluoroazetidin-1-yl)carbonyl]-5,6,7,8-tetrahydro[1,2,4]triazolo[4,3-a]pyridin-3(2H)-one]
